Source: patent US20240132431A1, “METHOD FOR ALKYLATING ACIDIC FUNCTIONAL GROUP” (Chugai Seiyaku Kabushiki Kaisha, priority 2021, published 2024)

Target: T1, Bcl-2 protein (Recombinant Human Bcl-2 Protein) (Homo sapiens, UniProt P10415)
T1 construct: purchased Novus NBP2-34889
Assay: Binding evaluation of mixture library compounds to Bcl-2 using AS-MS (affinity selection mass spectrometry)
Settings: for ASMS ratio (%) n = 1 / ASMS ratio (%) n = 2: AS-MS, mixture library, Bcl-2, ASMS Ratio(%)=(A−C)/B×100; for ASMS ratio (%) n = 1: replicate n = 1; for ASMS ratio (%) n = 2: replicate n = 2
In short: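 Affinity selection MS: Bcl-2 20 μM + 1200-cpd mixture, […]/cpd, Tris pH 7.4 buffer w/ Tween-20, DTT; 1 h 23° C dark; P-2 spin SEC; MeCN/MeOH extraction; RP LC/MS. ASMS Ratio(%) = (A−C)/B×100.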

T1 sequence (P10415 whole entry): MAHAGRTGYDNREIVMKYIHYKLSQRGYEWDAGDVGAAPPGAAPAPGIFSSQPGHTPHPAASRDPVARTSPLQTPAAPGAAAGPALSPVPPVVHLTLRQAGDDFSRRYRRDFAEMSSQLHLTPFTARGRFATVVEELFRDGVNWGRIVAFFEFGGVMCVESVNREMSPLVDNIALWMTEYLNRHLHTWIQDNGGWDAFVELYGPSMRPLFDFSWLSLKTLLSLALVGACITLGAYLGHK

SMILES | ASMS ratio (%) n = 1 [%] | ASMS ratio (%) n = 2 [%] | ASMS ratio (%) (n = 1) | ASMS ratio (%) (n = 2)
CCOc1cncc(-c2ccccc2CCC(=O)N2CCN(c3ccc(C(=O)NS(C)(=O)=O)nn3)CC2)c1 [B2I012-01, 6-[4-[3-[2-(5-Ethoxypyridin-3-yl)phenyl]propanoyl]piperazin-1-yl]-N-methylsulfonylpyridazine-3-carboxamide] | −4.0 | −0.2 | – | –
CCOc1cccc(-c2ccc(C(=O)N3CCN(c4ccc(C(=O)NS(C)(=O)=O)nn4)CC3)c3ccccc23)c1 [B2I013-01, 6-[4-[4-(3-Ethoxyphenyl)naphthalene-1-carbonyl]piperazin-1-yl]-N-methylsulfonylpyridazine-3-carboxamide] | 0.0 | 0.0 | – | –
CCOc1cncc(-c2ccc(C(=O)N3CCN(c4ccc(C(=O)NS(C)(=O)=O)nn4)CC3)c3ccccc23)c1 [B2I014-01, 6-[4-[4-(5-Ethoxypyridin-3-yl)naphthalene-1-carbonyl]piperazin-1-yl]-N-methylsulfonylpyridazine-3-carboxamide] | 1.0 | 2.3 | – | –
CCOc1cccc(-c2cc(C(=O)N3CCN(c4ccc(C(=O)NS(C)(=O)=O)nn4)CC3)cc(C(C)(C)C)c2)c1 [B2I015-01, 6-[4-[3-tert-Butyl-5-(3-ethoxyphenyl)benzoyl]piperazin-1-yl]-N-methylsulfonylpyridazine-3-carboxamide] | 0.0 | 0.0 | – | –
CCOc1cncc(-c2cc(C(=O)N3CCN(c4ccc(C(=O)NS(C)(=O)=O)nn4)CC3)cc(C(C)(C)C)c2)c1 [B2I016-01, 6-[4-[3-tert-Butyl-5-(5-ethoxypyridin-3-yl)benzoyl]piperazin-1-yl]-N-methylsulfonylpyridazine-3-carboxamide] | 0.0 | 0.0 | – | –
CCOc1cccc(-c2cc(C(=O)N3CCN(c4ccc(C(=O)NS(C)(=O)=O)nn4)CC3)cc(C(F)(F)F)c2)c1 [B2I017-01, 6-[4-[3-(3-Ethoxyphenyl)-5-(trifluoromethyl)benzoyl]piperazin-1-yl]-N-methylsulfonylpyridazine-3-carboxamide] | 0.0 | 0.0 | – | –
CCOc1cncc(-c2cc(C(=O)N3CCN(c4ccc(C(=O)NS(C)(=O)=O)nn4)CC3)cc(C(F)(F)F)c2)c1 [B2I018-01, 6-[4-[3-(5-Ethoxypyridin-3-yl)-5-(trifluoromethyl)benzoyl]piperazin-1-yl]-N-methylsulfonylpyridazine-3-carboxamide] | 0.0 | 0.0 | – | –
CCOc1cccc(C#Cc2cc(C(=O)N3CCN(c4ccc(C(=O)NS(C)(=O)=O)nn4)CC3)cc(C(F)(F)F)c2)c1 [B2I019-01, 6-[4-[3-[2-(3-Ethoxyphenyl)ethynyl]-5-(trifluoromethyl)benzoyl]piperazin-1-yl]-N-methylsulfonylpyridazine-3-carboxamide] | 0.0 | – | – | –
CCOc1cncc(C#Cc2cc(C(=O)N3CCN(c4ccc(C(=O)NS(C)(=O)=O)nn4)CC3)cc(C(F)(F)F)c2)c1 [B2I020-01, 6-[4-[3-[2-(5-Ethoxypyridin-3-yl)ethynyl]-5-(trifluoromethyl)benzoyl]piperazin-1-yl]-N-methylsulfonylpyridazine-3-carboxamide] | 0.0 | 0.0 | – | –
CCOc1cccc(-c2cnn(-c3cc(C(=O)N4CCN(c5ccc(C(=O)NS(C)(=O)=O)nn5)CC4)cc(C(F)(F)F)c3)c2)c1 [B2I021-01, 6-[4-[3-[4-(3-Ethoxyphenyl)pyrazol-1-yl]-5-(trifluoromethyl)benzoyl]piperazin-1-yl]-N-methylsulfonylpyridazine-3-carboxamide] | 0.0 | 0.0 | – | –
CCOc1cncc(-c2cnn(-c3cc(C(=O)N4CCN(c5ccc(C(=O)NS(C)(=O)=O)nn5)CC4)cc(C(F)(F)F)c3)c2)c1 [B2I022-01, 6-[4-[3-[4-(5-Ethoxypyridin-3-yl)pyrazol-1-yl]-5-(trifluoromethyl)benzoyl]piperazin-1-yl]-N-methylsulfonylpyridazine-3-carboxamide] | 0.0 | 0.0 | – | –
CCOc1cccc(-c2csc(C(=O)N3CCN(c4ccc(C(=O)NS(C)(=O)=O)cc4)CC3)c2)c1 [B2I023-01, 4-[4-[4-(3-Ethoxyphenyl)thiophene-2-carbonyl]piperazin-1-yl]-N-methylsulfonylbenzamide] | 0.0 | 0.0 | – | –
CCOc1cncc(-c2csc(C(=O)N3CCN(c4ccc(C(=O)NS(C)(=O)=O)cc4)CC3)c2)c1 [B2I024-01, 4-[4-[4-(5-Ethoxypyridin-3-yl)thiophene-2-carbonyl]piperazin-1-yl]-N-methylsulfonylbenzamide] | 0.0 | 0.0 | – | –
CCOc1cccc(-c2ccc(C(=O)N3CCN(c4ccc(C(=O)NS(C)(=O)=O)cc4)CC3)cc2C)c1 [B2I025-01, 4-[4-[4-(3-Ethoxyphenyl)-3-methylbenzoyl]piperazin-1-yl]-N-methylsulfonylbenzamide] | 0.0 | 0.0 | – | –
CCOc1cncc(-c2ccc(C(=O)N3CCN(c4ccc(C(=O)NS(C)(=O)=O)cc4)CC3)cc2C)c1 [B2I026-01, 4-[4-[4-(5-Ethoxypyridin-3-yl)-3-methylbenzoyl]piperazin-1-yl]-N-methylsulfonylbenzamide] | −2.6 | −0.2 | – | –
CCOc1cccc(-c2ccc(C(=O)N3CCN(c4ccc(C(=O)NS(C)(=O)=O)cc4)CC3)cc2F)c1 [B2I027-01, 4-[4-[4-(3-Ethoxyphenyl)-3-fluorobenzoyl]piperazin-1-yl]-N-methylsulfonylbenzamide] | 0.0 | 0.0 | – | –
CCOc1cncc(-c2ccc(C(=O)N3CCN(c4ccc(C(=O)NS(C)(=O)=O)cc4)CC3)cc2F)c1 [B2I028-01, 4-[4-[4-(5-Ethoxypyridin-3-yl)-3-fluorobenzoyl]piperazin-1-yl]-N-methylsulfonylbenzamide] | 0.0 | 0.0 | – | –
CCOc1cccc(C#Cc2ccccc2C(=O)N2CCN(c3ccc(C(=O)NS(C)(=O)=O)cc3)CC2)c1 [B2I029-01, 4-[4-[2-[2-(3-Ethoxyphenyl)ethynyl]benzoyl]piperazin-1-yl]-N-methylsulfonylbenzamide] | 0.0 | 0.0 | – | –
CCOc1cncc(C#Cc2ccccc2C(=O)N2CCN(c3ccc(C(=O)NS(C)(=O)=O)cc3)CC2)c1 [B2I030-01, 4-[4-[2-[2-(5-Ethoxypyridin-3-yl)ethynyl]benzoyl]piperazin-1-yl]-N-methylsulfonylbenzamide] | 0.0 | 0.0 | – | –
CCOc1cccc(C#Cc2cncc(C(=O)N3CCN(c4ccc(C(=O)NS(C)(=O)=O)cc4)CC3)c2)c1 [B2I031-01, 4-[4-[5-[2-(3-Ethoxyphenyl)ethynyl]pyridine-3-carbonyl]piperazin-1-yl]-N-methylsulfonylbenzamide] | 0.0 | 0.0 | – | –
CCOc1cncc(C#Cc2cncc(C(=O)N3CCN(c4ccc(C(=O)NS(C)(=O)=O)cc4)CC3)c2)c1 [B2I032-01, 4-[4-[5-[2-(5-Ethoxypyridin-3-yl)ethynyl]pyridine-3-carbonyl]piperazin-1-yl]-N-methylsulfonylbenzamide] | −1.6 | −1.6 | – | –
CCOc1cccc(-c2ccccc2CCC(=O)N2CCN(c3ccc(C(=O)NS(C)(=O)=O)cc3)CC2)c1 [B2I033-01, 4-[4-[3-[2-(3-Ethoxyphenyl)phenyl]propanoyl]piperazin-1-yl]-N-methylsulfonylbenzamide] | 0.0 | 0.0 | – | –
CCOc1cncc(-c2ccccc2CCC(=O)N2CCN(c3ccc(C(=O)NS(C)(=O)=O)cc3)CC2)c1 [B2I034-01, 4-[4-[3-[2-(5-Ethoxypyridin-3-yl)phenyl]propanoyl]piperazin-1-yl]-N-methylsulfonylbenzamide] | 0.0 | 1.6 | – | –
CCOc1cccc(-c2ccc(C(=O)N3CCN(c4ccc(C(=O)NS(C)(=O)=O)cc4)CC3)c3ccccc23)c1 [B2I035-01, 4-[4-[4-(3-Ethoxyphenyl)naphthalene-1-carbonyl]piperazin-1-yl]-N-methylsulfonylbenzamide] | 0.0 | 1.6 | – | –
CCOc1cncc(-c2ccc(C(=O)N3CCN(c4ccc(C(=O)NS(C)(=O)=O)cc4)CC3)c3ccccc23)c1 [B2I036-01, 4-[4-[4-(5-Ethoxypyridin-3-yl)naphthalene-1-carbonyl]piperazin-1-yl]-N-methylsulfonylbenzamide] | −0.7 | 1.5 | – | –
CCOc1cccc(-c2cc(C(=O)N3CCN(c4ccc(C(=O)NS(C)(=O)=O)cc4)CC3)cc(C(C)(C)C)c2)c1 [B2I037-01, 4-[4-[3-tert-Butyl-5-(3-ethoxyphenyl)benzoyl]piperazin-1-yl]-N-methylsulfonylbenzamide] | 0.0 | 3.3 | – | –
CCOc1cncc(-c2cc(C(=O)N3CCN(c4ccc(C(=O)NS(C)(=O)=O)cc4)CC3)cc(C(C)(C)C)c2)c1 [B2I038-01, 4-[4-[3-tert-Butyl-5-(5-ethoxypyridin-3-yl)benzoyl]piperazin-1-yl]-N-methylsulfonylbenzamide] | 0.0 | 0.0 | – | –
CCOc1cccc(C#Cc2cc(C(=O)N3CCN(c4ccc(C(=O)NS(C)(=O)=O)cc4)CC3)cc(C(F)(F)F)c2)c1 [B2I041-01, 4-[4-[3-[2-(3-Ethoxyphenyl)ethynyl]-5-(trifluoromethyl)benzoyl]piperazin-1-yl]-N-methylsulfonylbenzamide] | – | – | 0.0 | 0.0
